Data on one compound can be found in patent US11572590B2, “Methods for evaluating tumor cell spheroids using 3D microfluidic cell culture device” (Dana-Farber Cancer Institute, Inc., priority 2017, dated 2023).

Where two headings read alike, the source gives them in different places.

Experiment in all cases: SelectScreen Kinase Profiling, single point inhibition and IC50 for off-target kinases
Common to all, as to format: biochemical

Assay [1] has as its target off-target kinases (Homo sapiens, UniProt O00238). Particulars: BMPR1B (ALK6), LanthaScreen Binding. In general terms: TR-FRET usually uses a lanthanide donor and a delayed reading to cut background.
Assay [2] deals with off-target kinases (Homo sapiens, UniProt P49840). Particulars: GSK3A (GSK3 alpha), ZLYTE, ATP Km app.
Assay [3] deals with T1, off-target kinases (Homo sapiens, UniProt O15111).
T1 sequence (O15111 1-745): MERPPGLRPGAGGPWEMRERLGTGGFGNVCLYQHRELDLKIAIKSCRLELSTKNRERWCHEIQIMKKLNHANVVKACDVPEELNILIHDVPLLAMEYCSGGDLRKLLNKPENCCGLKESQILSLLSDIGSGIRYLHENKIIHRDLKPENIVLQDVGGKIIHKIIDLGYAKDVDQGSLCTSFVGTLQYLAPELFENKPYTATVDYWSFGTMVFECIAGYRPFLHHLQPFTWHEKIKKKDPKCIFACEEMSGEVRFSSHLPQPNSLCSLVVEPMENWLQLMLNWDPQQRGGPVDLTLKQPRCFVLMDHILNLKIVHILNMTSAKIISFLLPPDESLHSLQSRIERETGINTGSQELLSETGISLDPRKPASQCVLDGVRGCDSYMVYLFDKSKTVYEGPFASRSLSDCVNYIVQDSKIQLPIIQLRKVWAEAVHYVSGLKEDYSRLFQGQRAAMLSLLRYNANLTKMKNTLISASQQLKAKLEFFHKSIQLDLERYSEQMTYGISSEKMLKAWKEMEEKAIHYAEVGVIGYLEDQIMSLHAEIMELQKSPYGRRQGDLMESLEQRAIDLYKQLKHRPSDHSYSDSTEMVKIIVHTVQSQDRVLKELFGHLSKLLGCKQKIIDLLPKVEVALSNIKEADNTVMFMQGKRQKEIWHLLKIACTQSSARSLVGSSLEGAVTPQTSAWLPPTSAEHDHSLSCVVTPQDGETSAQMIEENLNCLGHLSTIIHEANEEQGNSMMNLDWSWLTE
Particulars: CHUK (IKK alpha), ATP Km app, Adapta.

In assay [4] the target is off-target kinases (Homo sapiens, UniProt Q9HCP0). Particulars: CSNK1G1 (CK1 gamma 1); Cmpd1 1000 μM; ATP Km app; ZLYTE.
Sequence of off-target kinases (Homo sapiens, UniProt Q9HCP0) (Q9HCP0 whole entry): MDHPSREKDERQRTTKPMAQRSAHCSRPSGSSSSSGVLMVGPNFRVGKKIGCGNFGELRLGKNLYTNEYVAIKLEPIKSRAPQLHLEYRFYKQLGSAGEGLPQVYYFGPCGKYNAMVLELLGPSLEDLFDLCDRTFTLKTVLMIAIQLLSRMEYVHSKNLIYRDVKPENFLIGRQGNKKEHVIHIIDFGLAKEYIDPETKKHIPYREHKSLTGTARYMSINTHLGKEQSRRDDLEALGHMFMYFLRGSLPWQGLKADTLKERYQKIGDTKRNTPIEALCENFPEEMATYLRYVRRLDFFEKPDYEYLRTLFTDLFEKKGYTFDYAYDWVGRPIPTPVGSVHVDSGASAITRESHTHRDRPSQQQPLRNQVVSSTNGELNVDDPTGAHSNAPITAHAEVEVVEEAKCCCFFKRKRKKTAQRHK

Sequence of off-target kinases (Homo sapiens, UniProt P49840) (P49840 whole entry): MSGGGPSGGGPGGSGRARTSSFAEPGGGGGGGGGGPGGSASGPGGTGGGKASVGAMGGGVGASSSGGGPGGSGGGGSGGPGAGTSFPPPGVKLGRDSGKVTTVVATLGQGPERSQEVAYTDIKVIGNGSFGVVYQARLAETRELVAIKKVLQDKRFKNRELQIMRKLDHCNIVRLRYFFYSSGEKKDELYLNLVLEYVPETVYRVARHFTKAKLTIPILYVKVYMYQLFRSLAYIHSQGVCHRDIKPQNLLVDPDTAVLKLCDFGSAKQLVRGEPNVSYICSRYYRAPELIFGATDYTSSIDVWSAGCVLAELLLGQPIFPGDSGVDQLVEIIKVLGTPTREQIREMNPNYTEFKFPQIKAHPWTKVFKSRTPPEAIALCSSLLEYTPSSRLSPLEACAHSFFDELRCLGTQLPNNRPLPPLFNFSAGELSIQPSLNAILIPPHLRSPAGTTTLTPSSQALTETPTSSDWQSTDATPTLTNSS
Sequence of off-target kinases (Homo sapiens, UniProt O00238) (O00238 14-502): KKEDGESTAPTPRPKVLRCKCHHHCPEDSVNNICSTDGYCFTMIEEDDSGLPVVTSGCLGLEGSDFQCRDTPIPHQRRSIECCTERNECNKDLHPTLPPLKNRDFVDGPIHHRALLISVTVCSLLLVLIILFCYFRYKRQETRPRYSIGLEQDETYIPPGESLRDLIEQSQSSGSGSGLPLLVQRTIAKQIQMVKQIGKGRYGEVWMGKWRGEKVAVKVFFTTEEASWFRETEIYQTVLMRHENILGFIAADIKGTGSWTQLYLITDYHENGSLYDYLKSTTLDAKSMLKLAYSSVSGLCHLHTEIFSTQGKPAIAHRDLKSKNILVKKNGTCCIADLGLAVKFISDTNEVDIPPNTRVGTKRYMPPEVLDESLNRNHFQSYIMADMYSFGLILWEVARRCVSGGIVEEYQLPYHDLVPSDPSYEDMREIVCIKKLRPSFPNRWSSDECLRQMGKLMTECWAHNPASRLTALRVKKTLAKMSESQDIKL

As usually defined, the inhibition is the drop in the measured response relative to a control, in per cent. Take `N#Cc1cc(-c2ncnc(Nc3ccc(N4CCN(C5COC5)CC4)cc3)n2)ccc1OC1CCOCC1` [Compound 1, 5-(4-((4-(4-(oxetan-3-yl)piperazin-1-yl)phenyl)amino)-1,3,5-triazin-2-yl)-2-((tetrahydro-2H-pyran-4-yl)oxy)benzonitrile]: the inhibition in assay [1] (read-out: % Inhibition 1) came out at 56%; in assay [1] (read-out: % Inhibition 2), 60%; in assay [1] (read-out: % Inhibition Avg), 58%; in assay [2] (read-out: % Inhibition 1), 20%; in assay [2] (read-out: % Inhibition 2), 22%; in assay [2] (read-out: % Inhibition Avg) it was 21%. Besides, the inhibition in assay [3] (read-out: % Inhibition 1) worked out at 65%; in assay [3] (read-out: % Inhibition 2) it was 50%; in assay [3] (read-out: % Inhibition Avg) it was 58%. Further, the “% Inhibition 1” value in assay [4] is reported as −14%. Moreover, in assay [4], the “% Inhibition 2” value is 2%. Besides, in assay [4], the “% Inhibition Avg” value is recorded as −6%.
